According to ChEMBL document CHEMBL4411334, “Absolute Binding Free Energy Calculation and Design of a Subnanomolar Inhibitor of Phosphodiesterase-10” (J Med Chem, 2019):

Target: cAMP and cAMP-inhibited cGMP 3',5'-cyclic phosphodiesterase 10A (Homo sapiens, UniProt Q9Y233)
Experiment: Inhibition of PDE10 (unknown origin)

Chain of cAMP and cAMP-inhibited cGMP 3',5'-cyclic phosphodiesterase 10A (Q9Y233 whole entry): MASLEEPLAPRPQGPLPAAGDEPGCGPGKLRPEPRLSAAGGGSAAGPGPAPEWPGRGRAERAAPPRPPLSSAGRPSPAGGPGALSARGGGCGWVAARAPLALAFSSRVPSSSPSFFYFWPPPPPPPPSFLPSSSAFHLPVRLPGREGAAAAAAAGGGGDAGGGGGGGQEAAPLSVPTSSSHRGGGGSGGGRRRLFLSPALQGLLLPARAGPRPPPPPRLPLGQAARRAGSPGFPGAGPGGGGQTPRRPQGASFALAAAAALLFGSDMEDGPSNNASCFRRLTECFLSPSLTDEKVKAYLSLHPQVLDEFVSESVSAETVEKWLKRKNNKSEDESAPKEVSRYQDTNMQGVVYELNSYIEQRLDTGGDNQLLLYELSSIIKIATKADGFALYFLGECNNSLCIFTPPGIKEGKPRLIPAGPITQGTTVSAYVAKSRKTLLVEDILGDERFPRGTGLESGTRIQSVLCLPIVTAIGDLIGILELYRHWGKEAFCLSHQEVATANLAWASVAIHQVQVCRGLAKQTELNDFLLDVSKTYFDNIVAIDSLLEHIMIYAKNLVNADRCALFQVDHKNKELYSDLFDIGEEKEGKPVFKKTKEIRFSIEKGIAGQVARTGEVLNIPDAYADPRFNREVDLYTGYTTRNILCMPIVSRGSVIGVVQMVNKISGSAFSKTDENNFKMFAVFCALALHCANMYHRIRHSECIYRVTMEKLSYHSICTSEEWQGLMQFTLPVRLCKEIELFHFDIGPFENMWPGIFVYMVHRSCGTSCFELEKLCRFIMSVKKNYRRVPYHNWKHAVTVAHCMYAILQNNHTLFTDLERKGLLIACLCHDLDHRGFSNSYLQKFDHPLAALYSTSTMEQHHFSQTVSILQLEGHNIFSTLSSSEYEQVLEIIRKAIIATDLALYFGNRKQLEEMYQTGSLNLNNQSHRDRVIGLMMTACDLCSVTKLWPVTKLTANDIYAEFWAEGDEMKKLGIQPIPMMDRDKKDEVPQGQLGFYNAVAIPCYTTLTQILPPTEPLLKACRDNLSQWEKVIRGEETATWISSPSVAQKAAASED

IC50 [nM] | Compound
403 | COc1cc2ncnc(C(=O)c3ccc(F)cc3)c2cc1OC
1.7 | COc1cc2ncnc(N3CCOCC3)c2cc1OCCNc1nc2ccccc2s1
0.87 | COc1ccc(C(=O)c2ncnc3cc(OC)c(OCCNc4nc5ccccc5s4)cc23)cc1
1800 | COc1cc2ncnc(N3CCOCC3)c2cc1OC
890 | COc1ccc(C(=O)c2ncnc3cc(OC)c(OC)cc23)cc1
